# Test results reported in ChEMBL document CHEMBL1201862, “PubChem BioAssay data set” (2004).
#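 Interpolation was linear, between the two tested concentrations surrounding the appropriate level; five concentrations were tested over 48 hours in 96-well plates. GI50: concentration for 50% inhibition of growth.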 Active and inactive are the calls of the source. No stated cut-off is given here; in the data, active = GI50 up to about 1.1 µM and inactive = higher.
# Columns and labels:
# Test in all cases: NCI-60 cell line screen, 48 h
# A498 = tested on: A498
# HCT-15 = tested on: HCT-15
# HL-60 = tested on: HL-60
# IGROV-1 = tested on: IGROV-1
# LOX IMVI = tested on: LOX IMVI
# M14 = tested on: M14
# MOLT-4 = tested on: MOLT-4
# Malme-3M = tested on: Malme-3M
# OVCAR-4 = tested on: OVCAR-4
# OVCAR-5 = tested on: OVCAR-5
# RXF 393 = tested on: RXF 393
# SF-539 = tested on: SF-539
# SK-MEL-2 = tested on: SK-MEL-2
# SK-MEL-5 = tested on: SK-MEL-5
# U-251 = tested on: U-251
# UO-31 = tested on: UO-31
# ACHN = tested on: ACHN
# HCC 2998 = tested on: HCC 2998
Structure (SMILES),GI50 (A498),GI50 (HCT-15),GI50 (HL-60),GI50 (IGROV-1),GI50 (LOX IMVI),GI50 (M14),GI50 (MOLT-4),GI50 (Malme-3M),GI50 (OVCAR-4),GI50 (OVCAR-5),GI50 (RXF 393),GI50 (SF-539),GI50 (SK-MEL-2),GI50 (SK-MEL-5),GI50 (U-251),GI50 (UO-31),GI50 (ACHN),GI50 (HCC 2998)
O=C1OC(=O)C2C1C1(c3ccccc3)OC2(c2ccccc2)c2c(Br)c(Br)c(Br)c(Br)c21 (stereo not given),> 100 µM (inactive),> 100 µM,> 100 µM (inactive),> 100 µM (inactive),> 100 µM (inactive),> 100 µM (inactive),> 100 µM (inactive),> 100 µM (inactive),> 100 µM (inactive),> 100 µM (inactive),42.3 µM (inactive),> 100 µM (inactive),> 100 µM (inactive),> 100 µM (inactive),> 100 µM (inactive),> 100 µM (inactive),–,–
O=c1[nH]c(Br)nc2c(Br)c[nH]c12,> 100 µM (inactive),> 100 µM,> 100 µM (inactive),> 100 µM (inactive),> 100 µM (inactive),> 100 µM (inactive),> 100 µM (inactive),> 100 µM (inactive),> 100 µM (inactive),> 100 µM (inactive),> 100 µM (inactive),> 100 µM (inactive),> 100 µM (inactive),> 100 µM (inactive),> 100 µM (inactive),> 100 µM (inactive),> 100 µM (inactive),–
CCOCc1cc(=O)c2c(OC)cc3c(c2o1)CCC(C)(C)O3,–,> 100 µM,> 100 µM (inactive),> 100 µM (inactive),> 100 µM (inactive),> 100 µM (inactive),> 100 µM (inactive),> 100 µM (inactive),> 100 µM (inactive),> 100 µM (inactive),> 100 µM (inactive),> 100 µM (inactive),> 100 µM (inactive),> 100 µM (inactive),> 100 µM (inactive),> 100 µM (inactive),> 100 µM (inactive),> 100 µM (inactive)
O=C(O)c1cc(=O)c2[nH]c3ccccc3c2s1,–,> 100 µM,> 100 µM (inactive),> 100 µM (inactive),–,> 100 µM (inactive),> 100 µM (inactive),> 100 µM (inactive),> 100 µM (inactive),> 100 µM (inactive),> 100 µM (inactive),–,> 100 µM (inactive),> 100 µM (inactive),–,> 100 µM (inactive),> 100 µM (inactive),> 100 µM (inactive)
Nc1cc(=O)n(-c2ccccc2)c(=S)n1-c1ccccc1,> 100 µM (inactive),> 100 µM,–,> 100 µM (inactive),> 100 µM (inactive),> 100 µM (inactive),> 100 µM (inactive),> 100 µM (inactive),–,> 100 µM (inactive),> 100 µM (inactive),> 100 µM (inactive),> 100 µM (inactive),> 100 µM (inactive),> 100 µM (inactive),> 100 µM (inactive),> 100 µM (inactive),> 100 µM (inactive)
Cc1cccc(C)c1NC(=O)C(=O)C(C#N)c1ccccc1Cl (stereo not given),> 100 µM (inactive),> 100 µM,80.2 µM (inactive),> 100 µM (inactive),–,> 100 µM (inactive),> 100 µM (inactive),> 100 µM (inactive),> 100 µM (inactive),> 100 µM (inactive),> 100 µM (inactive),> 100 µM (inactive),> 100 µM (inactive),> 100 µM (inactive),> 100 µM (inactive),> 100 µM (inactive),> 100 µM (inactive),> 100 µM (inactive)
N#Cc1cc(NC(=O)c2ccccc2)c(=O)n2c1[nH]c1ccccc12,22.7 µM (inactive),31 µM,26.4 µM (inactive),24.5 µM (inactive),–,27.3 µM (inactive),29.6 µM (inactive),23.9 µM (inactive),27 µM (inactive),–,13.6 µM (inactive),21.5 µM (inactive),32.1 µM (inactive),12.7 µM (inactive),26.9 µM (inactive),18.3 µM (inactive),29.9 µM (inactive),28.8 µM (inactive)
C1OC1C1CO1 (stereo not given),–,> 100 µM,3.14 µM (inactive),> 100 µM (inactive),21.1 µM (inactive),> 100 µM (inactive),3.28 µM (inactive),> 100 µM (inactive),> 100 µM (inactive),> 100 µM (inactive),48.4 µM (inactive),59.8 µM (inactive),> 100 µM (inactive),45.2 µM (inactive),20.1 µM (inactive),> 100 µM (inactive),–,96.4 µM (inactive)
Cc1cc2c3ccccc3n3c2c2c1OC1(C)CCC(C2C1)C3(C)C (stereo not given),–,> 25 µM,> 25 µM (inactive),> 25 µM (inactive),> 25 µM (inactive),> 25 µM (inactive),> 25 µM (inactive),> 25 µM (inactive),> 25 µM (inactive),> 25 µM (inactive),–,> 25 µM (inactive),> 25 µM (inactive),> 25 µM (inactive),> 25 µM (inactive),> 25 µM (inactive),> 25 µM (inactive),> 25 µM (inactive)
CC#CC#C/C=C1\C=CC2(OC=CC2O)O1 (stereo not given),–,7.4 µM,> 14.1 µM (inactive),> 16.7 µM (inactive),11.9 µM (inactive),> 17.8 µM (inactive),10.5 µM (inactive),10.4 µM (inactive),8.26 µM (inactive),4.23 µM (inactive),8.55 µM (inactive),> 14.9 µM (inactive),> 17.8 µM (inactive),> 12.9 µM (inactive),> 20.7 µM (inactive),12.2 µM (inactive),> 23.3 µM (inactive),> 16.2 µM (inactive)
Clc1ccc2nc(-c3ccccc3)nc(Cl)c2c1,> 100 µM (inactive),> 100 µM,12.5 µM (inactive),> 100 µM (inactive),–,–,> 100 µM (inactive),24.2 µM (inactive),–,> 100 µM (inactive),26.1 µM (inactive),46.6 µM (inactive),45.6 µM (inactive),> 100 µM (inactive),68.1 µM (inactive),> 100 µM (inactive),24.9 µM (inactive),40.2 µM (inactive)
CC(=O)O/N=C(/C)c1ccccc1O,–,–,> 100 µM (inactive),> 100 µM (inactive),> 100 µM (inactive),> 100 µM (inactive),> 100 µM (inactive),> 100 µM (inactive),> 100 µM (inactive),> 100 µM (inactive),> 100 µM (inactive),> 100 µM (inactive),> 100 µM (inactive),–,> 100 µM (inactive),> 100 µM (inactive),> 100 µM (inactive),> 100 µM (inactive)
COc1ccc2[nH]c3c(c2c1)CCN(C)CC3,> 100 µM (inactive),> 100 µM,71.8 µM (inactive),> 100 µM (inactive),> 100 µM (inactive),> 100 µM (inactive),> 100 µM (inactive),> 100 µM (inactive),45.3 µM (inactive),> 100 µM (inactive),–,> 100 µM (inactive),> 100 µM (inactive),> 100 µM (inactive),> 100 µM (inactive),–,> 100 µM (inactive),> 100 µM (inactive)
CCOC(=O)C1CC/C(=C(/C#N)C(=O)OC)N1 (stereo not given),> 100 µM (inactive),> 100 µM,> 100 µM (inactive),> 100 µM (inactive),> 100 µM (inactive),> 100 µM (inactive),> 100 µM (inactive),–,> 100 µM (inactive),–,> 100 µM (inactive),> 100 µM (inactive),> 100 µM (inactive),> 100 µM (inactive),> 100 µM (inactive),> 100 µM (inactive),> 100 µM (inactive),> 100 µM (inactive)
C(=C1/CCCCC([n+]2ccccc2)=N1)/c1ccccc1,–,> 100 µM,> 100 µM (inactive),–,> 100 µM (inactive),> 100 µM (inactive),> 100 µM (inactive),> 100 µM (inactive),> 100 µM (inactive),> 100 µM (inactive),> 100 µM (inactive),> 100 µM (inactive),> 100 µM (inactive),–,> 100 µM (inactive),> 100 µM (inactive),> 100 µM (inactive),> 100 µM (inactive)
O=[N+]([O-])c1ccc(C[P+](c2ccccc2)(c2ccccc2)c2ccccc2)cc1,> 100 µM (inactive),81.5 µM,27.2 µM (inactive),25.4 µM (inactive),42 µM (inactive),56.9 µM (inactive),> 100 µM (inactive),37.8 µM (inactive),–,> 100 µM (inactive),11.9 µM (inactive),67.8 µM (inactive),25.4 µM (inactive),57 µM (inactive),31.7 µM (inactive),> 100 µM (inactive),> 100 µM (inactive),36.1 µM (inactive)
Clc1ccc2c(Cl)ncnc2c1,> 100 µM (inactive),> 100 µM,> 100 µM (inactive),> 100 µM (inactive),> 100 µM (inactive),> 100 µM (inactive),> 100 µM (inactive),> 100 µM (inactive),> 100 µM (inactive),> 100 µM (inactive),–,> 100 µM (inactive),> 100 µM (inactive),> 100 µM (inactive),> 100 µM (inactive),> 100 µM (inactive),> 100 µM (inactive),> 100 µM (inactive)
CC(C)(C=O)CC(C#N)/C(=N\NC(N)=O)C(=O)Nc1ccccc1C(N)=O (stereo not given),> 100 µM (inactive),> 100 µM,> 100 µM (inactive),> 100 µM (inactive),> 100 µM (inactive),> 100 µM (inactive),> 100 µM (inactive),> 100 µM (inactive),> 100 µM (inactive),> 100 µM (inactive),–,> 100 µM (inactive),> 100 µM (inactive),> 100 µM (inactive),> 100 µM (inactive),> 100 µM (inactive),> 100 µM (inactive),> 100 µM (inactive)
